Laboratory results: patent publication US11298314B2, “Injectable composition for localized fat reduction without pain, edema, and side effects, and method for preparing same” (AMI PHARM CO., LTD., priority 2017, dated 2022)

Assays:
inguinal fat pad = details: 0.2 ml s.c. once into inguinal fat pad, 8 days post-injection
paw of the rats = test: Rat paw edema; format: in vivo, Sprague Dawley rats; details: for degree of edema in words: 2 hours after administration, rat paw; for degree of edema, 1 hour after administration / degree of edema, 2 hours after administration / degree of edema, Immediately after administration: 0.1 ml into rat paw
Method: (§1) To evaluate the degree of edema, each test compositions described above were injected into the paw of the rats. Specifically, male Sprague Dawley rats (6 weeks old) were purchased and used after one week of adaptation. The rats (body weight: 170˜200 g) were randomly selected and the thickness of the rat paw were measured with a caliper before the administration of the test compositions. In order to observe the edema, 0.1 ml of PBS and the various test compositions were administered to the paws of the rats. Measurements of the […] were performed by a caliper immediately before the injection, immediately after the injection, and 1 or 2 hours after the injection. In addition, when the thickness was measured, the skin lesion of the injection site was observed by photographing the sole of the paw (using a 4×4 cm scale).
The degree of edema was evaluated as 0 to 4 grades.

sole of the rat paws = test: Measurement of skin lesion (erythema) on rat paw; format: in vivo, Sprague Dawley rats; details: for skin lesion (erythema) in words: 2 hours after administration;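 for grade of skin lesion (erythema), 1 hour after administration: grades − to ++++ mean no to extremely severe erythema versus before injection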;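 for grade of skin lesion (erythema), 2 hours after administration: grades − to ++++ mean no to extremely severe erythema versus before injection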;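 for grade of skin lesion (erythema), Immediately after administration: grades − to ++++ mean no to extremely severe erythema versus before injection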
Method: as §1
The grades of skin lesion were evaluated as 0 to 4 grades.

[1] = tested on: tissues of the injected area (rat paw); test: H&E staining histological test (inflammation) of injected rat paw; format: in vivo, Sprague Dawley rats; details: for Inflammation (H&E), BA % (w/v) 1.0: bile acid single composition 1.0% (w/v); for degree of inflammation (H&E) in words: rats sacrificed at 3 hours, injected paw
Method: The tissues of the injected area were dissected, fixed with 10% formalin, and then the specimen was prepared and images were captured using an optical microscope. The degree of inflammation was evaluated as follows.

3T3-L1 adipocytes = test: Adipocyte (3T3-L1) reducing effect, MTT assay; format: cell-based; details: 24 to 96 hours, various concentrations
Method: Tests were performed to compare the adipocyte reducing activity of the PPC single composition and the PPC composition solubilized with bile acids. Differentiated 3T3L-1 adipocyte lines were used to observe adipocyte reduction activity, and cell viability was monitored by MTT assay. […] Materials and methods employed in the following experiments are described below. In the following, % of the composition refers to % (w/v).
The specific test methods are as follows. […] The cells were washed twice with PBS, treated with MTT reagent (50 μl) and left at 37° C. for 2 hours. After removing the supernatant, MTT formazan crystals were dissolved in DMSO and the absorbance was measured at 540 nm using a microplate reader.
The 3T3-L1 adipocyte (ATCC) was cultured in Dulbecco's modified eagle medium (DMEM) (Invitrogen) supplemented with 10% fetal bovine serum, 100 units/ml penicillin and 100 μg/ml streptomycin under the condition of 5% CO2 and 37° C. […] Subsequently, the medium was replaced with DMEM medium containing 1 μg/ml insulin (Sigma), and the culture medium was maintained and changed every 2 to 3 days until the degree of differentiation reaches maximum. If it took more than 7 days, the cells were kept in normal DMEM culture medium until starting the tests. […] After the cells were incubated for 3 hours under the condition of 37° C. and 5% CO2, the MTT solution was removed.

[2] = Formulation stability of PPC injectable preparations: property, transparency, particle size, pH; details: for bile acid/PPC molar ratio below which a substantially stable formulation did not occur: PPC 5.0%; for bile acid concentration at which stable injectable preparations can be made: based on PPC 5.0%
[3] = bile acid single composition 1.0% (w/v)
[4] = bile acid single composition 2.5% (w/v)
[5] = bile acid single composition 5.0% (w/v)
[6] = bile acid single composition 7.5% (w/v)

| grade of skin lesion (erythema), 1 hour after administration (sole of the rat paws; [3]) | grade of skin lesion (erythema), 2 hours after administration (sole of the rat paws; [3]) | grade of skin lesion (erythema), Immediately after administration (sole of the rat paws; [3]) | grade of skin lesion (erythema), 1 hour after administration (sole of the rat paws; [4]) | grade of skin lesion (erythema), 2 hours after administration (sole of the rat paws; [4]) | grade of skin lesion (erythema), Immediately after administration (sole of the rat paws; [4]) | grade of skin lesion (erythema), 1 hour after administration (sole of the rat paws; [5]) | grade of skin lesion (erythema), 2 hours after administration (sole of the rat paws; [5]) | SMILES | degree of edema, 1 hour after administration (paw of the rats; [3]) | degree of edema, 2 hours after administration (paw of the rats; [3]) | degree of edema, Immediately after administration (paw of the rats; [3]) | degree of edema, 1 hour after administration (paw of the rats; [4]) | degree of edema, 2 hours after administration (paw of the rats; [4]) | degree of edema, Immediately after administration (paw of the rats; [4]) | degree of edema, 1 hour after administration (paw of the rats; [5]) | degree of edema, 2 hours after administration (paw of the rats; [5]) | degree of edema, Immediately after administration (paw of the rats; [5]) | degree of edema, 1 hour after administration (paw of the rats; [6]) | degree of edema, 2 hours after administration (paw of the rats; [6]) | degree of edema, Immediately after administration (paw of the rats; [6]) | further results |
| --- | --- | --- | --- | --- | --- | --- | --- | --- | --- | --- | --- | --- | --- | --- | --- | --- | --- | --- | --- | --- | --- |
|  |  |  |  |  |  |  |  | CC(C)NCC(O)c1ccc(O)c(O)c1 (stereo not shown) [Isuprel] |  |  |  |  |  |  |  |  |  |  |  |  | histological change of adipocytes in fat tissue (inguinal fat pad): size of the adipocytes was reduced |
| − | − | − | − | − | − | − | − | C[C@H](CCC(=O)NCCS(=O)(=O)O)[C@H]1CC[C@H]2[C@@H]3[C@@H](O)C[C@@H]4C[C@H](O)CC[C@]4(C)[C@H]3CC[C@]12C [TUDCA, 2-[[(4R)-4-[(3R,5S,7S,8R,9S,10S,13R,14S,17R)-3,7-dihydroxy-10,13-dimethyl-2,3,4,5,6,7,8,9,11,12,14,15,16,17-tetradecahydro-1H-cyclopenta[a]phenanthren-17-yl]pentanoyl]amino]ethanesulfonic acid] | + (mild edema [+, (the degree of swelling was 1-20% compared to before the injection)]) | + (mild edema [+, (the degree of swelling was 1-20% compared to before the injection)]) | ++ (moderate edema [++, (the degree of swelling was 20-40% compared to before the injection)]) | + (mild edema [+, (the degree of swelling was 1-20% compared to before the injection)]) | + (mild edema [+, (the degree of swelling was 1-20% compared to before the injection)]) | ++ (moderate edema [++, (the degree of swelling was 20-40% compared to before the injection)]) | + (mild edema [+, (the degree of swelling was 1-20% compared to before the injection)]) | ++ (moderate edema [++, (the degree of swelling was 20-40% compared to before the injection)]) | ++ (moderate edema [++, (the degree of swelling was 20-40% compared to before the injection)]) | ++ (moderate edema [++, (the degree of swelling was 20-40% compared to before the injection)]) | ++ (moderate edema [++, (the degree of swelling was 20-40% compared to before the injection)]) | ++ (moderate edema [++, (the degree of swelling was 20-40% compared to before the injection)]) | degree of edema in words (paw of the rats; listed as TUCA 1.0%): Mild; degree of edema in words (paw of the rats; listed as TUCA 2.5%): Mild; degree of edema in words (paw of the rats; listed as TUDCA 1.0%): mild; degree of edema in words (paw of the rats; listed as TUDCA 2.5%): mild; degree of edema in words (paw of the rats; listed as TUDCA 5.0%): moderate; degree of edema in words (paw of the rats; listed as TUDCA 7.5%): Moderate; grade of skin lesion (erythema), Immediately after administration (sole of the rat paws; [5]): −; grade of skin lesion (erythema), 1 hour after administration (sole of the rat paws; [6]): −; grade of skin lesion (erythema), 2 hours after administration (sole of the rat paws; [6]): −; grade of skin lesion (erythema), Immediately after administration (sole of the rat paws; [6]): −; Inflammation (H&E), BA % (w/v) 1.0 ([1]; injected rat paw): −; Inflammation (H&E), BA % (w/v) 2.5 ([1]; bile acid single composition 2.5% (w/v), injected rat paw): −; Inflammation (H&E), BA % (w/v) 5.0 ([1]; bile acid single composition 5.0% (w/v), injected rat paw): −; Inflammation (H&E), BA % (w/v) 7.5 ([1]; bile acid single composition 7.5% (w/v), injected rat paw): +; degree of inflammation (H&E) in words [1]: Mild; adipocyte viability / adipocyte-reducing activity (3T3-L1 adipocytes): inhibits the adipocyte apoptosis and degradation; bile acid/PPC molar ratio below which a substantially stable formulation did not occur [2]: less than 1.29; bile acid concentration at which stable injectable preparations can be made [2]: ≥ 4.0% |
| +++ | ++ | + | +++ | +++ | ++ | ++++ | ++++ | C[C@H](CCC(=O)NCCS(=O)(=O)O)[C@H]1CC[C@H]2C3CC[C@@H]4C[C@H](O)CC[C@]4(C)[C@H]3C[C@H](O)[C@]12C (stereo partly drawn) [TDCA, 2-[[(4R)-4-[(3R,5R,9S,10S,12S,13R,14S,17R)-3,12-dihydroxy-10,13-dimethyl-2,3,4,5,6,7,8,9,11,12,14,15,16,17-tetradecahydro-1H-cyclopenta[a]phenanthren-17-yl]pentanoyl]amino]ethanesulfonic acid] | +++ (severe edema [+++, (the degree of swelling was 40-60% compared to before the injection)]) | +++ (severe edema [+++, (the degree of swelling was 40-60% compared to before the injection)]) | ++ (moderate edema [++, (the degree of swelling was 20-40% compared to before the injection)]) | +++ (severe edema [+++, (the degree of swelling was 40-60% compared to before the injection)]) | +++ (severe edema [+++, (the degree of swelling was 40-60% compared to before the injection)]) | ++ (moderate edema [++, (the degree of swelling was 20-40% compared to before the injection)]) | ++++ (extremely severe edema [++++, (the degree of swelling was 60% or more compared to before the injection)]) | ++++ (extremely severe edema [++++, (the degree of swelling was 60% or more compared to before the injection)]) | ++ (moderate edema [++, (the degree of swelling was 20-40% compared to before the injection)]) | ++++ (extremely severe edema [++++, (the degree of swelling was 60% or more compared to before the injection)]) | ++++ (extremely severe edema [++++, (the degree of swelling was 60% or more compared to before the injection)]) | ++ (moderate edema [++, (the degree of swelling was 20-40% compared to before the injection)]) | degree of edema in words (paw of the rats; listed as TDCA 2.5%): “severe” and “extremely severe”; skin lesion (erythema) in words (sole of the rat paws; listed as TDCA 1.0%): Moderate; skin lesion (erythema) in words (sole of the rat paws; listed as TDCA 2.5%): “severe” and “extremely severe”; grade of skin lesion (erythema), Immediately after administration (sole of the rat paws; [5]): ++; grade of skin lesion (erythema), 1 hour after administration (sole of the rat paws; [6]): ++++; grade of skin lesion (erythema), 2 hours after administration (sole of the rat paws; [6]): ++++; grade of skin lesion (erythema), Immediately after administration (sole of the rat paws; [6]): ++; Inflammation (H&E), BA % (w/v) 1.0 ([1]; injected rat paw): ++; degree of inflammation (H&E) in words [1]: Moderate; bile acid/PPC molar ratio below which a substantially stable formulation did not occur [2]: less than 0.74; bile acid concentration at which stable injectable preparations can be made [2]: ≥ 2.3% |
